In this data set the test system is metastatic breast cancer. Put plainly: ^18F-FDG-PET in breast cancer patients with metastatic disease. In kind it is in vivo, human. How it is done:
^18F-FDG-PET in breast cancer patients with metastatic disease. Approval was obtained from the Albert Einstein College of Medicine Cancer Center Protocol Review Committee and the Montefiore Medical Center Institutional Review Board. Retrospectively, five consecutive patients with breast cancer and metastatic disease shown on ^18F-FDG-PET scanning were evaluated. After more than 4 hours of fasting, the patients were administered 3.5 mCi of ^18F-FDG, and rested during an uptake period of 45 minutes. The patients then underwent a whole-body scan on the CPET scanner. The scanning protocol consisted of 6 minutes of emission and two rotations of a ^137Cs source for transmission per bed position, and approximately six bed positions. Images were corrected for attenuation and reconstructed with the iterative method. To reduce volume averaging, a small round region of interest 12 pixels in size was drawn in the center of the tumor and in the center of normal liver. The diameter of the region was 14 mm. Standardized uptake values (SUVs) were calculated for all regions of interest by the formula SUV=(activity in tissue [mCi/g]) divided by (injected activity [mCi]/body weight [g]). The tumor to liver ratios (TLRS) were calculated by the formula TLR=SUV of tumor divided by SUV of liver.

[1] abbreviates: Patient 1, metastasis to sub-carinal lymph node, 3.5 mCi.
[2] abbreviates: Patient 2, metastasis to the left axilla, 3.5 mCi.
Setting [3] is: Patient 4, metastasis to the right axilla, 3.5 mCi.

Regarding `O=C[C@H]([18F])[C@@H](O)[C@H](O)[C@H](O)CO` [^18F-FDG, ^18F-2-deoxy-2-fluoro-D-glucose], the “SUV Metastasis” value is, setting by setting: under setting [1], 5.3; under setting [2], 7.4; (Patient 3, liver metastasis (10 cm×6 cm×4.5 cm), 3.5 mCi) 5.8; under setting [3], 5.3; (Patient 5, right lung metastasis (most intense, diameter 5 cm), 3.5 mCi) 9.9. Moreover, the TLR stood at 1.89 under setting [1]; 3.36 under setting [2]; 2.23 (Patient 3, liver metastasis, 3.5 mCi); 2.52 under setting [3]; 3.67 (Patient 5, right lung metastasis, 3.5 mCi). For the same compound, the “SUV Normal liver” value is, setting by setting: (Patient 1, 3.5 mCi) 2.8; (Patient 2, 3.5 mCi) 2.3; (Patient 3, 3.5 mCi) 2.6; (Patient 4, 3.5 mCi) 2.1; (Patient 5, 3.5 mCi) 2.7. The “lowest SUV” value (Patient 3, tumor with a diameter of 2 cm) is on record as 3.8. For the same compound, the “least intense SUV” value (Patient 5, tumor with a diameter of 1.5 cm) turned out to be 2.9. For the same compound, the “average TLR” value (five patients with metastatic breast cancer, 3.5 mCi) is recorded as 2.7±0.8.

The values above are taken from patent US20060018827A1, “Positron therapy of inflammation, infection and disease” (priority 2004, published 2006).
